According to patent US20140303116A1, “CARNOSINE HYALURONIC ACID MIXTURES AND THEIR USE” (priority 2010, published 2014):

Experiments:
collagen III = collagen III expression in fibroblasts by Western blotting; assay type: cell-based; conditions: fibroblasts exposed to 1.0 and 1.5% for 48 hours, beta-actin internal control
Description: The effect of solutions diluted to 1% and 1.5% and neutralized according to Example 4 on the production of collagen by fibroblasts treated with these solutions was verified.
The Western blotting technique was used to verify any production of collagen by the fibroblasts treated with L- and D-carnosine hyaluronate for 48 hours.
Fibroblast cultures were lysed with RIPA buffer at pH 7.4. Then, the samples were run onto a 10% SDS-polyacrylamide gel under reducing conditions. When the run has been completed, the proteins were transferred onto nitrocellulose membranes, incubated with anti-collagen III antibodies and then with the secondary antibody. […] The beta-actin expression was used as an internal control.

skin fibroblasts = test: scratch assay, migration of skin fibroblasts; assay type: cell-based; conditions: 48 hours of treatment after scratching; doses of between 0.2 and 0.8%; mitomycin C pre-treated cells, DMEM with 10% FCS
Description: The solutions obtained from Examples 2 and 3 were used to prepare dilute […], and these solutions, whose pH initially changed from 3 to 1.5, were neutralized by the addition of NaOH.
The effect of the above solutions on the migration of skin fibroblasts was tested in vitro by means of a scratch assay. In this test, cells mimic cell migration during an in vivo tissue repair.
The method is based on scratch-wounding a confluent monolayer of cells so that the cells capable of migration are stimulated to cover the artificial gap in an attempt to re-establish new cell-to-cell contacts. […]
In this assay, the fibroblasts were scratch-wounded and then treated with the test substances at different concentrations. At 48 hours after treatment, cells were photographed and stained with crystal violet, and the migrated cells were counted under an optical microscope. […]
Cells were cultivated in DMEM with 10% FCS and treated with the dilute solutions of L-carnosine hyaluronate as described above for 48 hours after scratching. […] Cells were counted after staining with crystal violet.
Cells were cultivated in DMEM with 10% FCS and treated with the dilute solutions of D-carnosine hyaluronate as described above for 48 hours after scratching. […] Cells were counted after staining with crystal violet.

L-carnosine hyaluronate
collagen III synthesis vs control cells treated with saline (collagen III): synthesize more collagen III than control cells | migration of skin fibroblasts (migrated cell count) (skin fibroblasts): statistically significantly migrate

D-carnosine hyaluronate
collagen III synthesis vs control cells treated with saline (collagen III): synthesize more collagen III than control cells | migration of skin fibroblasts (migrated cell count) (skin fibroblasts): statistically significantly migrate
